Experimental data taken from patent publication US5846720A, “Methods of determining chemicals that modulate expression of genes associated with cardiovascular disease” (Oncogene Science, Inc., priority 1996, dated 1998).

What was measured:
[1] = tested on: 5637 bladder carcinoma cells; assay: G-CSF secretion, two-antibody sandwich immunoassay; assay type: cell-based, human; conditions: 48 hours, serum-containing media
Procedure: Supernatants from 5637 bladder carcinoma cells incubated with chemicals registering as positives in the G-CSF promoter/luciferase high throughput assay were assayed for secreted G-CSF protein using the two-antibody sandwich immunoassay (83). The G-CSF Assay kit manufactured by Oncogene Science, Inc. was used and the manufacturer's instructions were followed.
The levels of G-CSF in the cell supernatants were determined by a sandwich-antibody assay as described in above (FIG. 42).

FRE cells = assay: MTT respiratory inhibition cytotoxicity assay versus luciferase induction in G21; assay type: cell-based; conditions: G21 reporter cells vs FRE cells, 6 hours
Description: To determine cytotoxic concentrations of chemicals registering as positives in the high throughput luciferase assay the MTT cytotoxicity assay was employed (82). In this assay, a tetrazolium salt [3-(4,5-dimethylthiazol-2-yl)-2,5-diphenyl -tetrazolium bromide, MTT] is reduced to a colored formazon product by reducing enzymes present only in living metabolically active cells.
To address the question whether the induction of G-CSF, and GM-CSF transcription by the compound #542 was a specific effect or rather a phenomenon linked to a potential sensitivity of these promoters to stress exerted by toxic compounds, the concentration dependency of induction of luciferase activity in the reporter cell line G21 was compared to the concentration dependency of inhibition of respiration in FRE cells. Cells were seeded into 96 well microtiter plates (20,000 cells/well) and cultured overnight. Compound #542 was added at various concentrations and the cells were incubated for 6 hours. Luciferase activity was determined as described above. The MTT-colorimetric assay was carried out on identically treated samples of FRE cells. Induction of luciferase reporter signal (plain line) and on inhibition of respiration (dashed line) are plotted versus the concentrations of compound (FIG. 40). […]

G-CSF mRNA = assay: S1 nuclease protection, G-CSF mRNA; assay type: cell-based, human
Procedure: (§1) S1 Nuclease protection assays were carried out as described in reference 118.
(§2) To further confirm, that compounds that had been identified in a luciferase expression assay using a G-CSF specific reporter cell line would be active in inducing transcription of the endogenous G-CSF gene, cells from the parental cell line 5637 used to construct the reporter cell line were incubated with cycloheximide (25 ug/ml), DMSO (0.5%,solvent control) and low, medium and high concentrations of the compounds 542 (10, 50, 250 μM),1255 (20, 100, 500 uM), 1793(0.25, 1.2, 6.25 μM) and 1904 (20, 100 uM) for 18 hours. RNA was extracted and the concentration of G-CSF, GM-CSF and gamma-actin mRNA was determined by the S1 protection method as described in above. The positions of G-CSF GM-CSF and gamma-actin specific protected fragments are indicated (G, GM, A) at the left side of the gel (FIG. 37).

GM-CSF mRNA = assay: S1 nuclease protection, GM-CSF mRNA; assay type: cell-based, human; conditions: 5637 cells, 18 hours
Procedure: as §1, §2

Nc1nc(=O)n([C@H]2C[C@H](O)[C@@H](CO)O2)cc1Br [#542]
G-CSF secretion [1]: increased G-CSF secretion | factor between ED50 for induction of luciferase activity and ED50 for inhibition of respiration (FRE cells): ~10 factor | amount of G-CSF mRNA (S1 nuclease protection) (G-CSF mRNA; 5637 cells, 18 hours): increased mRNA production | levels of endogenous G-CSF mRNA (G-CSF mRNA; method not stated at the place): stimulate levels of endogenous G-CSF mRNA | amount of GM-CSF mRNA (S1 nuclease protection) (GM-CSF mRNA): increased the amount of GM-CSF mRNA
